Measurements published in patent publication US20120219613A1 (priority 2009, published 2012).
Values joined by “and” are separate entries in the source; they are usually repeats but may differ in a detail not shown here. Equal entries are not always repeated. Where two headings read alike, the source gives them in different places.

Experiments:
NiV-pVSV = assay: microbe, parasite or virus in culture; type: cell-based, Nipah virus envelope pseudotyped onto VSV
enveloped viruses = settings: cited from earlier work
[1] = test system: enveloped viruses, such as influenza, HIV-1 and TBEV; settings: cited from earlier work
[2] = Vesicular stomatitis virus, Vero

| Compound | IC50 (NiV-pVSV) | IC50 (NiV-pVSV; [2]) | antiviral activity in SAR discussion (NiV-pVSV) | also measured |
| --- | --- | --- | --- | --- |
| CCCN1C(=O)/C(=C/c2ccc(-c3ccccc3)o2)SC1=S [LJ-003, (Z)-3-Propyl-5-(5-phenyl-2-furyl)methylene-4-oxothiazolidine-2-thione] | 950 nM | 900 nM |  |  |
| CN1C(=O)/C(=C/c2ccc(-c3ccccc3)o2)SC1=S [LJ-005, (Z)-3-Methyl-5-(5-phenyl-2-furyl)methylene-4-oxothiazolidine-2-thione] | 1220 nM | 1500 nM |  |  |
| CCN1C(=O)/C(=C/c2ccc(-c3cccc(F)c3)o2)SC1=S [LJ-007, (Z)-3-Ethyl-5-[5-(3-fluorophenyl)-2-furyl]methylene-4-oxothiazolidine-2-thione] | 1450 nM | 2500 nM |  |  |
| CCN1C(=O)/C(=C/c2ccc(-c3ccccc3OC)o2)SC1=S [LJ-010, (Z)-3-Ethyl-5-[5-(2-methoxyphenyl)-2-furyl]methylene-4-oxothiazolidine-2-thione] | 400 nM | 800 nM |  |  |
| CCN1C(=O)/C(=C/c2ccc(-c3cccc(OC)c3)o2)SC1=S [LJ-011, (Z)-3-Ethyl-5-[5-(3-methoxyphenyl)-2-furyl]methylene-4-oxothiazolidine-2-thione] | 1160 nM | 1500 nM |  |  |
| CCN1C(=O)/C(=C/c2ccc(C)o2)SC1=S [LJ-013, (Z)-3-ethyl-5-((5-methylfuran-2-yl)methylene)-2-thioxothiazolidin-4-one] |  |  |  | IC50 (μM) (NiV-pVSV): Inactive |
| CCN1C(=O)/C(=C/c2ccco2)SC1=S [LJ-014, (Z)-3-ethyl-5-(furan-2-ylmethylene)-2-thioxothiazolidin-4-one] |  |  |  | IC50 (μM) (NiV-pVSV): Inactive |
| CCN1C(=O)/C(=C/c2ccc(-c3ccccc3[N+](=O)[O-])o2)SC1=S [LJ-015, (Z)-3-ethyl-5-((5-(2-nitrophenyl)furan-2-yl)methylene)-2-thioxothiazolidin-4-one] | 1030 nM | 1300 nM |  |  |
| CCN1C(=O)/C(=C/c2ccc(-c3ccccc3O)o2)SC1=S [LJ-016, (Z)-3-Ethyl-5-((5-(2-hydroxyphenyl)furan-2-yl)methylene)-2-thioxothiazolidin-4-one] | 2350 nM | 2200 nM | tolerated but led to generally lower activity |  |
| CCN1C(=O)/C(=C/c2ccc(-c3ccccc3N)o2)SC1=S [LJ-017, (Z)-5-((5-(2-Aminophenyl)furan-2-yl)methylene)-3-ethyl-2-thioxothiazolidin-4-one] | 1960 nM | 3400 nM | tolerated but led to generally lower activity |  |
| CCN1C(=O)/C(=C/c2ccc(-c3ccccc3)s2)SC1=S [LJ-018, (Z)-3-ethyl-5-((5-phenylthiophen-2-yl)methylene)-2-thioxothiazolidin-4-one] | 2650 nM | 4100 nM | retained activity, albeit at slightly reduced levels |  |
| CCN1C(=O)/C(=C/c2cccc(-c3ccccc3)c2)SC1=S [LJ-019, (Z)-5-(Biphenyl-3-ylmethylene)-3-ethyl-2-thioxothiazolidin-4-one] |  |  | inactive | IC50 (μM) (NiV-pVSV): Inactive |
| CCN1C(=O)/C(=C/c2ccc(-c3ccccc3[N+]#N)o2)SC1=S.F[B-](F)(F)F [LJ-020, (Z)-3-Ethyl-5-[5-(2-diazoniophenyl)-2-furyl]methylene-4-oxothiazolidine-2-thione tetrafluoroborate] |  |  | tolerated but led to generally lower activity |  |
| CCN1C(=O)/C(=C/c2cnc(-c3ccccc3)o2)SC1=S [LJ-023, (Z)-3-Ethyl-5-((2-phenyloxazol-5-yl)methylene)-2-thioxothiazolidin-4-one] | 2400 nM | 2500 nM | retained activity, albeit at slightly reduced levels |  |
| O=C1NC2CSC(CCCCC(=O)OCCCN3C(=O)/C(=C/c4ccc(-c5ccccc5)o4)SC3=S)C2N1 (stereo not drawn) [LJ-024] |  |  | retained good activity | IC50 (NiV-pVSV; read-out: IC50): 1900 nM and 1770 nM |
| C=CCN1C(=O)S/C(=C\c2ccc(-c3ccccc3)o2)C1=O [LJ-025, (Z)-3-Allyl-5-((5-phenylfuran-2-yl)methylene)thiazolidine-2,4-dione] |  |  | completely inactive both in vitro and in vivo | virion membrane morphology by EM (pVSV particles): not; IC50 (μM) (NiV-pVSV): Inactive |
| C=CCN1C(=S)S/C(=C\c2ccc(-c3ccccc3)o2)C1=S [LJ-027] |  |  |  | IC50 (NiV-pVSV; read-out: IC50): 900 nM |
| CCN1C(=S)S/C(=C\c2ccc(-c3ccccc3[N+](=O)[O-])o2)C1=S [LJ-028] |  |  |  | IC50 (NiV-pVSV; read-out: IC50): 2010 nM |
| C=CCN1C(=O)S/C(=C\c2ccc(-c3ccccc3)o2)C1=S [LJ-029, (Z)-3-allyl-5-(5-phenyl-2-furyl)methylene-2-oxothiazolidine-4-thione] |  | 4320 nM |  |  |
| CCN1C(=O)S/C(=C\c2ccc(-c3ccccc3[N+](=O)[O-])o2)C1=S [LJ-030, (Z)-3-ethyl-5-((5-(2-nitrophenyl)furan-2-yl)methylene)-2-oxothiazolidin-4-thione] |  | 490 nM |  |  |
| O=C1NC(=S)S/C1=C\c1ccc(-c2ccccc2)o1 [LJ-031, (Z)-5-(5-phenyl-2-furyl)methylene-4-oxothiazolidine-2-thione] |  | 1040 nM |  |  |
| C#CCN1C(=O)/C(=C/c2ccc(-c3ccccc3)o2)SC1=S [LJ-032, (Z)-3-(2-propynyl)-5-(5-phenyl-2-furyl)methylene-4-oxothiazolidine-2-thione] |  | 1030 nM |  |  |
| C=CCN1C(=O)C(Cc2ccc(-c3ccccc3)o2)SC1=S (stereo not drawn) [LJ-033, 3-Allyl-5-((5-phenylfuran-2-yl)methyl)-4-oxothiazolidin-2-thione] |  |  | completely inactive | IC50 (μM) (NiV-pVSV): Inactive |
| CC(=O)NCCCN1C(=O)/C(=C/c2ccc(-c3ccccc3)o2)SC1=S [LJ-034, (Z)—N-(3-(4-Oxo-5-((5-phenylfuran-2-yl)methylene)-2-thioxothiazolidin-3-yl)propyl)acetamide] |  |  |  | IC50 (μM) (NiV-pVSV): Inactive |
| NCCCN1C(=O)/C(=C/c2ccc(-c3ccccc3)o2)SC1=S [LJ-035, (Z)-3-(3-Aminopropyl)-5-((5-phenylfuran-2-yl)methylene)-4-oxothiazolidin-2-thione] |  |  |  | IC50 (μM) (NiV-pVSV): Inactive |
| CC(C)(C)OC(=O)NCCCN1C(=O)/C(=C/c2ccc(-c3ccccc3)o2)SC1=S [LJ-036, (Z)-tert-Butyl 3-(4-oxo-5-((5-phenylfuran-2-yl)methylene)-2-thioxothiazolidine-3-yl)propyl carbamate] |  |  |  | IC50 (NiV-pVSV; read-out: IC50): 740 nM |
| CCCCCCCCCCCCCCCCCCCCCCO [n-docosanol] |  |  |  | IC50 (enveloped viruses): millimolar |
| (Z)-3-(2,4-Dioxo-5-((5-phenylfuran-2-yl)methylene)thioxothiazolidin-3-yl) propyl-5-(2-oxohexahydro-1H-thieno[3,4-d]imidazol-4-yl)pentanoate [LJ-037] |  |  |  | IC50 (μM) (NiV-pVSV): Inactive |
| lysophosphotidylcholine [LPC] |  |  |  | required molar concentration (total lipid content) [1]: ≥ 10% |
